Patent US11951094B2, “TLR2 modulator compounds, pharmaceutical compositions and uses thereof” (Axial Therapeutics, Inc., priority 2020, dated 2024)

Legend:
Type in all cases: cell-based
[1] = molecular target: T1, TLR2 (Homo sapiens, UniProt O60603); assay: TLR2 antagonist screening assay, HEK Blue hTLR2 cells, competition with diprovocim; parameters: host or cells: HEK Blue hTLR2 cells
From the text: TLRs signal through ligand-mediated dimerization or multimerization. TLR2 may partner with TLR1 or TLR6 to produce an agonist signal. Compounds that prevent agonist signaling, antagonists, may interfere with proper dimerization or with downstream signaling. The following assay was developed to identify and characterize novel TLR2 antagonists.
The in vitro TLR2 assay consists of a cell line that responds to TLR2 engagement by producing a factor that elicits a color change in the culture media and can be readily measured by various colorimetric detection methods. This assay enables the identification of existing and novel compounds that engage TLR2. Treating reporter cells with putative TLR2 antagonists will diminish the reporter response to TLR2 agonists.
TLR2 antagonists were screened for TLR2 binding and blocking with a competition assay. […] The assay was performed with Invivogen HEK Blue cells, which express the human TLR2 receptor as well as NFkB-inducible secreted Alkaline Phosphatase. Alkaline Phosphatase activity was proportional to TLR2 activation, and thus served as a colorimetric reporter.
HEK Blue hTLR2 cells (Invivogen) were grown in DMEM with 10% FBS (Seradigm). Cells were seeded at 40,000 cells/well in 96-well plates and incubated overnight to adhere. Media was replaced with 200 uL/well HEK Blue Detection Medium (Invivogen). […] Cells incubated for 16-24 hours, then absorbance at 600 nm was read on a SpectraMax M2 (Molecular Devices). […] Four parameter dose response curves were fit according to the following model, and IC50 values were reported: Y=Bottom+(Top-Bottom)/(1+(IC50/X)^HillSlope)
Where X is the antagonist concentration, Y is the normalized absorbance, Top and Bottom are the plateaus, IC50 is the concentration at half-maximal inhibition, and HillSlope is the slope factor.
• 1. HEK-Blue TLR2 cells are diluted in complete DME culture medium and plated into 96-well plates at 40,000 cells per well and cultured overnight. • 2. After 16-24 hours in culture, the media is removed and replaced with 200 microliters per well of HEK-Blue Detection media. • 3. TLR2 antagonists are diluted 100-fold from DMSO stocks into each well, yielding a final DMSO concentration of 1% in all wells. Reporter cells are treated for 1-2 hours, then treated with TLR2 agonist diluted to the EC50-70 concentration. • 4. Treated cells are cultured overnight and the following day are assayed in plate reader for Absorbance at 600 nanometer.

[2] = molecular target: T1, TLR2; assay: TLR2 agonist screening assay, HEK-Blue TLR2 reporter cell line (NF-kB-driven SEAP, absorbance at 600 nm); parameters: host or cells: HEK-293 (HEK-Blue TLR2 reporter cell line); settings: HEK-Blue TLR2 reporter cells, agonist mode
In short: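 Read-out: SEAP colour change, A600, after overnight agonist exposure. Cells: HEK-293 overexpressing TLR2, NF-kB-SEAP reporter, ~40,000/well, plated 16-24 h prior.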

[3] = molecular target: T2, TLR2 (Mus musculus, UniProt Q9QUN7); assay: TLR2 functional assay, cytokine release from RAW 264.7 mouse macrophage cell line; settings: average of all runs
T2 construct: endogenous in cells; host or cells: RAW 264.7
T2 sequence (Q9QUN7 25-784): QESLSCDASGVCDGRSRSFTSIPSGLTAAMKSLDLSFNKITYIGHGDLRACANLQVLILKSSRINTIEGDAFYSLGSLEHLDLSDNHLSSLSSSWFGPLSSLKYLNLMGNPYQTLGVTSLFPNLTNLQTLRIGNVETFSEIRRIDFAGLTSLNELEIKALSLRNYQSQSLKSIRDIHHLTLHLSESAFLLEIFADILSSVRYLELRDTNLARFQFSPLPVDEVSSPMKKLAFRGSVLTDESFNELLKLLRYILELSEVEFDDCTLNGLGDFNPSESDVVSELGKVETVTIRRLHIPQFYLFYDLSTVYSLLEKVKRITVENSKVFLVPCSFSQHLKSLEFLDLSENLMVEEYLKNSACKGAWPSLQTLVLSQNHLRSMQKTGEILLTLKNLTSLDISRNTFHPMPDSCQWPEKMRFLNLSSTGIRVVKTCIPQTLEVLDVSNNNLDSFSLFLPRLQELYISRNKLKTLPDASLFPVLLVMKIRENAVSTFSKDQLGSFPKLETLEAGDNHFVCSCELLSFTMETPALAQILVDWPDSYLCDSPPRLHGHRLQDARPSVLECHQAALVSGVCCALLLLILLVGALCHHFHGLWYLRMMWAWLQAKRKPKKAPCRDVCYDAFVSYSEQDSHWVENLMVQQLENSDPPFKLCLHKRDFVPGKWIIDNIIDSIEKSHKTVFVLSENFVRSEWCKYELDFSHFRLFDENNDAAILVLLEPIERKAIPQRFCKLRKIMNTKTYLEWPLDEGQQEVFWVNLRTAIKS
In short: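 RAW 264.7 cells plated (about 40,000 per well) and treated with compounds at varying concentrations for 6–24 h (or overnight). Released cytokines in supernatant (e.g. TNF-alpha, IL-1, IL-10, IL-12) measured by ELISA or MSD multiplex; EC50 fitted.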

[4] = molecular target: T1, TLR2; assay: TLR2 in vitro functional assay, cytokine release from human monocytic cell line THP-1; settings: THP-1 human monocytic cell line, average of all runs
Method: Cells of the immune system respond to TLR agonists in part by secreting cytokines. Functional assays for TLR2 agonists measure cytokine release from purified immune cells or immortalized cell lines derived from immune cells. Cytokine release is measured by standard ELISA approaches or multiplexed analysis using the Meso Scale Discovery (MSD) platform.
Following assay measurements utilizing either HEK-Blue detection or cytokine release, all data is analyzed with the GraphPad Prism8 statistical package to determine EC50, binding and activity metrics for the TLR2 modulators. […]
Numerous cell lines derived from various cell types can respond to TLR2 agonists with stereotyped cytokine and chemokine secretion. In particular, cell lines derived from macrophages respond robustly to TLR2 agonists by secreting a wide array of cytokines, including (but not limited to) TNF-alpha, IL-1, IL-10 and IL-12. The human monocytic cell line THP-1, the mouse macrophage line RAW-264.7, and the rat macrophage line NR8383 were used. For each assay, the respective cell lines were plated into 96-well plates overnight and then treated the following day with various TLR2-engaging compounds at varying concentrations. The next day, supernatants were collected and assayed by multiplex immunodetection for cytokines released (MSD detection kits for respective species).
Data provided in Table 5 is generated using protocols described in Example 45 and 46.

T1 sequence (O60603 21-784): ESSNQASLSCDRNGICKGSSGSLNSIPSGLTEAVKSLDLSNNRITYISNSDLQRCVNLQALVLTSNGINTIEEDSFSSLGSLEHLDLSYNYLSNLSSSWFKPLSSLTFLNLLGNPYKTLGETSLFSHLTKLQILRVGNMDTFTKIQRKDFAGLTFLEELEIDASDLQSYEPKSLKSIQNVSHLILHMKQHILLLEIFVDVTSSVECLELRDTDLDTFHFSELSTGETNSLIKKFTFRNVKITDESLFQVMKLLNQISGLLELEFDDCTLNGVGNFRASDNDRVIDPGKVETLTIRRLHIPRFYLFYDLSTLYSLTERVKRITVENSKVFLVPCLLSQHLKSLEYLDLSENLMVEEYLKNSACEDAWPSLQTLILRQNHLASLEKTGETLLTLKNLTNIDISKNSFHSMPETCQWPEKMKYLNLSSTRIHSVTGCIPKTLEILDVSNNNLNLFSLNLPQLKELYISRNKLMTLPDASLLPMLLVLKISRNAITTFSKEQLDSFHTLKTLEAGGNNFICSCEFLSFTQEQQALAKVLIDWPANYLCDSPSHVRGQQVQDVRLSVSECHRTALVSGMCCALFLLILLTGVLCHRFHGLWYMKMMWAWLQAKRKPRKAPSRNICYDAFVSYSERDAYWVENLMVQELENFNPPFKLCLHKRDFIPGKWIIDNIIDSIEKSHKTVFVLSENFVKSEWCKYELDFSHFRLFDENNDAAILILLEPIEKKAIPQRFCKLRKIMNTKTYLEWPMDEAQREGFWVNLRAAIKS

IC50 [1] [nM] | EC50 ([2]; average of all runs (Table 4)) [nM] | EC50 ([2]; average of all runs (Table 3)) [nM] | EC50 [3] [nM] | EC50 [4] [nM] | SMILES
1 to 350 | > 1000 |  |  |  | O=C(N[C@H]1C[C@@H]1c1ccccc1)[C@@H]1CN(C(=O)c2ccc(C(=O)N3CC[C@@H](n4cnc(-c5ccc(C(F)(F)F)cc5)c4)C3)cc2)C[C@H]1C(=O)N[C@H]1C[C@@H]1c1ccccc1 [Compound 277]
1 to 350 | > 1000 |  |  |  | CCCCCCCCCCCCCCN1CC(=O)N[C@@H](CNC(=O)c2ccc(C(=O)N3C[C@@H](C(=O)N[C@H]4C[C@@H]4c4ccccc4)[C@H](C(=O)N[C@H]4C[C@@H]4c4ccccc4)C3)cc2)C1=O [Compound 177, (3S,4S)-1-(4-((((S)-3,6-dioxo-4-tetradecylpiperazin-2-yl)methyl)carbamoyl)benzoyl)-N3,N4-bis((1S,2R)-2-phenylcyclopropyl)pyrrolidine-3,4-dicarboxamide]
351 to 1000 | > 1000 |  |  |  | O=C(N[C@H]1C[C@@H]1c1ccccc1)[C@@H]1CN(C(=O)C23CCC(C(=O)N4C[C@@H](C(=O)N[C@H]5C[C@@H]5c5ccccc5)[C@H](C(=O)N[C@H]5C[C@@H]5c5ccccc5)C4)(CC2)CC3)C[C@H]1C(=O)N[C@H]1C[C@@H]1c1ccccc1 [Compound 077, (3S,3'S,4S,4'S)-1,1′-(bicyclo [2.2.2]octane-1,4-dicarbonyl) bis (N3,N4-bis((1S,2R)-2-phenylcyclopropyl)pyrrolidine-3,4-dicarboxamide)]
351 to 1000 |  | > 1000 |  |  | CCCCCCCCCCCCCCNC(=O)C1CN(C(=O)c2ccc(C(=O)N3C[C@@H](C(=O)N[C@H]4C[C@@H]4c4ccccc4)[C@H](C(=O)N[C@H]4C[C@@H]4c4ccccc4)C3)cc2)C1 [Compound 007]
351 to 1000 |  | > 1000 |  |  | CCCCCCCCCCCCCCC(=O)NC1CCN(C(=O)c2ccc(C(=O)N3C[C@@H](C(=O)N[C@H]4C[C@@H]4c4ccccc4)[C@H](C(=O)N[C@H]4C[C@@H]4c4ccccc4)C3)cc2)CC1 [Compound 008]
351 to 1000 |  | > 1000 |  |  | CCCCCCCC(=O)N1CCN(S(=O)(=O)c2ccc(C(=O)N3C[C@@H](C(=O)N[C@H]4C[C@@H]4c4ccccc4)[C@H](C(=O)N[C@H]4C[C@@H]4c4ccccc4)C3)cc2)CC1C(=O)NCCCCCC (stereo partly shown) [Compound 053]
351 to 1000 | > 1000 |  |  |  | CCCCCCCC(=O)N1CCCN(S(=O)(=O)c2ccc(C(=O)N3C[C@@H](C(=O)N[C@H]4C[C@@H]4c4ccccc4)[C@H](C(=O)N[C@H]4C[C@@H]4c4ccccc4)C3)cc2)CC1C(=O)NCCCCCC (single isomer, unassigned) [Compound 203, (3S,4S)-1-(4-(((R*)-3-(hexylcarbamoyl)-4-octanoyl-1,4-diazepan-1-yl)sulfonyl)benzoyl)-N3,N4-bis((1S,2R)-2-phenylcyclopropyl)pyrrolidine-3,4-dicarboxamide]
351 to 1000 |  | > 1000 |  |  | CCCCCCCCCCCCCCNC(=O)C1CN(C(=O)c2ccc(C(=O)N3C[C@@H](C(=O)N[C@H]4C[C@@H]4c4ccccc4)[C@H](C(=O)N[C@H]4C[C@@H]4c4ccccc4)C3)cc2)CCN1C(C)=O (stereo partly shown) [Compound 024]
351 to 1000 | > 1000 |  |  |  | CCCCCCCC(=O)N1CCN(S(=O)(=O)c2ccc(C(=O)N3C[C@@H](C(=O)N[C@H]4C[C@@H]4c4ccccc4)[C@H](C(=O)N[C@H]4C[C@@H]4c4ccccc4)C3)cc2)C[C@H]1C(=O)NCCCCCC [Compound 160, (3S,4S)-1-(4-(((S)-3-(hexylcarbamoyl)-4-octanoylpiperazin-1-yl)sulfonyl)benzoyl)-N3,N4-bis((1S,2R)-2-phenylcyclopropyl)pyrrolidine-3,4-dicarboxamide]
1 to 350 | > 1000 |  |  |  | CCCCCCN1C(=O)[C@H](CNC(=O)c2ccc(C(=O)N3C[C@@H](C(=O)N[C@H]4C[C@@H]4c4ccccc4)[C@H](C(=O)N[C@H]4C[C@@H]4c4ccccc4)C3)cc2)NC(=O)[C@@H]1CCCCC [Compound 176, (3S,4S)-1-(4-((((2S,5S)-4-hexyl-3,6-dioxo-5-pentylpiperazin-2-yl)methyl)carbamoyl)benzoyl)-N3,N4-bis((1S,2R)-2-phenylcyclopropyl)pyrrolidine-3,4-dicarboxamide]
1 to 350 | > 1000 |  |  |  | CCCCCCCCCCCCCCNC(=O)[C@@H]1CN(C(=O)c2ccc(C(=O)N3C[C@@H](C(=O)N[C@H]4C[C@@H]4c4ccccc4)[C@H](C(=O)N[C@H]4C[C@@H]4c4ccccc4)C3)cc2)CCN1C(C)=O [Compound 162, (3S,4S)-1-(4-((S)-4-acetyl-3-(tetradecylcarbamoyl)piperazine-1-carbonyl)benzoyl)-N3,N4-bis((1S,2R)-2-phenylcyclopropyl) pyrrolidine-3,4-dicarboxamide]
 | 0.1 to 50 |  | 51 to 350 | 0.1 to 50 | CCCCCCCCCCCCCCNC(=O)[C@H]1CN(C(=O)c2ccc(C(=O)N3C[C@@H](C(=O)N[C@H]4C[C@@H]4c4ccccc4)[C@H](C(=O)N[C@H]4C[C@@H]4c4ccccc4)C3)cc2)C[C@H]1OC (relative stereo) [Compound 108, (3S,4S)-1-(4-((3S*,4S*)-3-methoxy-4-(tetradecylcarbamoyl)pyrrolidine-1-carbonyl)benzoyl)-N3,N4-bis((1S,2R)-2-phenylcyclopropyl)pyrrolidine-3,4-dicarboxamide]
